# In publication PMC4127532 (Journal of Medicinal Chemistry, 2014):
# “Also recorded” adds a separate entry of the source.
# Experiments:
# [1] = target: A/England/195/2009 (H1N1), M2/S31 (Influenza A virus, UniProt C3W5Z0, N31S); assay type: cell-based
# [2] = tested on: A/Victoria/3/75 (H3N2, M2 WT); experiment: microbe, parasite or virus in culture; assay type: cell-based, influenza A
# [3] = target: S31N M2 transmembrane domain (residues 22–46) (Influenza A virus, UniProt P0DOF5, S31N); assay type: binding, influenza A (A/Udorn/307/72)
smiles,measurement,setting,value
"NC12CC3CC(CC(C3)C1)C2 [Compound 1, amantadine]",block of inward proton currents (in words),[1],well blocked
same,EC50 ± SE,[2],no detectable activity; also recorded: inactive
same,EC50,"[2]; Influenza A virus, H3N2, MDCK",3000 ± 500 nM
NC1C2CC3CC(C2)CC1C3 (stereo not shown) [Compound 3],block of inward proton currents (in words),[1],well blocked
"CCCC1(N)C2CC3CC(C2)CC1C3 (stereo not shown) [Compound 6, 2-n-Propyltricyclo[3.3.1.1^3,7]decan-2-amine]",block of inward proton currents (in words),[1],well blocked
same,decrease of tilt angle of the entire TMD helix,[3],3 °
same,helix tilt of S31N M2 TMD with drug,[3],~33 °
